Data published in patent US11317630B2, “Method of controlling weeds” (Sumitomo Chemical Company, Limited, priority 2018, dated 2022).

Columns and labels:
Format in all cases: in vivo
[1] = tested on: Amaranthus palmeri having an Arg128Gly, Arg128Met, Gly210 deletion or Gly399Ala mutation in PPO2, waterhemp having a Gly210 deletion mutation in PPO2, ragweeds …; assay: Herbicidal effect, soil application with drift-reducing nozzle on the day of sowing weeds and soybean (Example 2); conditions: soil surface on day of sowing, TTI11004 nozzle, 10, 20, 40, 80, or 160 g/ha, 200 L/ha, greenhouse, examined after 21 days
Description: Amaranthus palmeri having an Arg128Gly mutation in PPO2, Amaranthus palmeri having an Arg128Met mutation in PPO2, Amaranthus palmeri having a Gly210 deletion mutation in PPO2, Amaranthus palmeri having a Gly399Ala mutation in PPO2, waterhemp having a Gly210 deletion mutation in PPO2, ragweeds having Arg128Leu in PPO02, and a Roundup Ready 2 Xtend soybean are sown in a plastic pot. On the same day, a compound X is applied to the surface of soil by using a drift-reducing nozzle (TTI11004 manufactured by Teejet Company). The amount of the compound X to be applied is 10, 20, 40, 80, or 160 g/ha and the amount of spray dilution is 200 L/ha. Then, the weeds and soybean are cultivated in a greenhouse to examine the effects on the weeds and phytotoxic effects on the soybean after 21 days.

[2] = tested on: Amaranthus palmeri having an Arg128Gly, Arg128Met, Gly210 deletion or Gly399Ala mutation in PPO2, waterhemp having a Gly210 deletion mutation in PPO2, ragweeds …; assay: Herbicidal effect, soil application with drift-reducing nozzle 7 days before sowing soybean (Example 1); conditions: soil surface, TTI11004 nozzle, 10, 20, 40, 80, or 160 g/ha, 200 L/ha, greenhouse, soybean sown after 7 days, examined after 14 days
Description: Amaranthus palmeri having an Arg128Gly mutation in PPO2, Amaranthus palmeri having an Arg128Met mutation in PPO2, Amaranthus palmeri having a Gly210 deletion mutation in PPO2, Amaranthus palmeri having a Gly399Ala mutation in PPO2, waterhemp having a Gly210 deletion mutation in PPO2, and ragweeds having Arg128Leu in PPO2 are sown in a plastic pot. On the same day, a compound X is applied to the surface of soil by using a drift-reducing nozzle (TTI11004 manufactured by Teejet Company). The amount of the compound X to be applied is 10, 20, 40, 80, or 160 g/ha and the amount of spray dilution is 200 L/ha. Then, these weeds are cultivated in a greenhouse and Roundup Ready 2 Xtend soybean seeds are sown after 7 days, to examine the effects on the weeds and phytotoxic effects on the soybean after 14 days.

[3] = tested on: Amaranthus palmeri having an Arg128Gly, Arg128Met, Gly210 deletion or Gly399Ala mutation in PPO2, waterhemp having a Gly210 deletion mutation in PPO2, ragweeds …; assay: Herbicidal effect, foliar treatment with drift-reducing nozzle 21 days after sowing (Example 3); conditions: foliar treatment 21 days after sowing, TTI11004 nozzle, 10, 20, 40, 80, or 160 g/ha, 200 L/ha, greenhouse, examined 14 days after treatment
Description: Amaranthus palmeri having an Arg128Gly mutation in PPO2, Amaranthus palmeri having an Arg128Met mutation in PPO2, Amaranthus palmeri having a Gly210 deletion mutation in PPO2, Amaranthus palmeri having a Gly399Ala mutation in PPO2, waterhemp having a Gly210 deletion mutation in PPO2, ragweeds having Arg128Leu in PPO02, and a Roundup Ready 2 Xtend soybean are sown in a plastic pot. Then, the weeds and soybean are cultivated in a greenhouse and a compound X is applied to perform foliar treatment by using a drift-reducing nozzle (TTI11004 manufactured by Teejet Company) 21 days after sowing. The amount of the compound X to be applied is 10, 20, 40, 80, or 160 g/ha and the amount of spray dilution is 200 L/ha. Then, the weeds and soybean are further cultivated in a greenhouse to examine the effects on the weeds and phytotoxic effects on the soybean 14 days after treatment.

Measured: effects on the weeds

CCOC(=O)COc1ncccc1Oc1cc(-n2c(=O)cc(C(F)(F)F)n(C)c2=O)c(F)cc1Cl [compound X, Ethyl [3-[2-chloro-4-fluoro-5-(l-methyl-6-trifluoromethyl-2,4-dioxo-1,2,3,4-tetrahydropyrimidine-3-yl)phenoxy]-2-pyridyloxy]acetate]
valuable effect: all assays above
